Measured values published in ChEMBL document CHEMBL5303573, “Mapping human microbiome drug metabolism by gut bacteria and their genes” (Nature, 2019).

Experiments:
[1] = The drug is tested on Bacteroides caccae strain: ATCC43185 for biotransformation. The drug concentrations were measured before and after a 12-h incubation by liquid-chromatography-coupled mass spectrometry (LC–MS); details: 2 µM
[2] = The drug is tested on Enterococcus faecalis strain: V583 for biotransformation. The drug concentrations were measured before and after a 12-h incubation by liquid-chromatography-coupled mass spectrometry (LC–MS); details: 2 µM
[3] = The drug is tested on Ruminococcus lactaris strain: ATCC29176 for biotransformation. The drug concentrations were measured before and after a 12-h incubation by liquid-chromatography-coupled mass spectrometry (LC–MS); details: 2 µM
[4] = The drug is tested on Anaerotruncus colihominis strain: DSM17241 for biotransformation. The drug concentrations were measured before and after a 12-h incubation by liquid-chromatography-coupled mass spectrometry (LC–MS); details: 2 µM
[5] = The drug is tested on Bifidobacterium ruminantium strain: fecal isolate for biotransformation. The drug concentrations were measured before and after a 12-h incubation by liquid-chromatography-coupled mass spectrometry (LC–MS); details: 2 µM
[6] = The drug is tested on Bacteroides dorei strain: DSM17855 for biotransformation. The drug concentrations were measured before and after a 12-h incubation by liquid-chromatography-coupled mass spectrometry (LC–MS); details: phocaeicola dorei, 2 µM
[7] = bacteroides thetaiotaomicron, 12 h, 2 µM
Description: The drug is tested on Bacteroides thetaiotaomicron strain: 3731 for biotransformation. The drug concentrations were measured before and after a 12-h incubation by liquid-chromatography-coupled mass spectrometry (LC–MS)

| SMILES | Bacterial Biotransformation [1] | Bacterial Biotransformation [2] | Bacterial Biotransformation [3] | Bacterial Biotransformation [4] | Bacterial Biotransformation [5] | Bacterial Biotransformation [6] | Bacterial Biotransformation [7] |
| --- | --- | --- | --- | --- | --- | --- | --- |
| CCN(CC)CCNC(=O)c1ccc(NC(C)=O)cc1 [ACECAINIDE] | Compound NOT metabolized | Compound NOT metabolized | Compound NOT metabolized | Compound NOT metabolized |  |  |  |
| CN(C)CCc1c[nH]c2ccc(CS(=O)(=O)N3CCCC3)cc12 [ALMOTRIPTAN] | Compound NOT metabolized | Compound NOT metabolized | Compound NOT metabolized | Compound NOT metabolized |  |  |  |
| C=CCc1ccccc1OCC(O)CNC(C)C (stereo unspecified) [ALPRENOLOL] | Compound NOT metabolized |  | Compound NOT metabolized | Compound NOT metabolized | Compound metabolized | Compound NOT metabolized |  |
| CCC1(c2ccc(N)cc2)CCC(=O)NC1=O (stereo unspecified) [AMINOGLUTETHIMIDE] | Compound NOT metabolized | Compound NOT metabolized | Compound NOT metabolized | Compound NOT metabolized |  | Compound NOT metabolized | Compound NOT metabolized |
| O=C1CN2Cc3c(ccc(Cl)c3Cl)N=C2N1 [ANAGRELIDE] |  | Compound NOT metabolized | Compound NOT metabolized | Compound NOT metabolized |  | Compound metabolized | Compound NOT metabolized |
| CC(C)(C#N)c1cc(Cn2cncn2)cc(C(C)(C)C#N)c1 [ANASTROZOLE] | Compound metabolized | Compound NOT metabolized | Compound NOT metabolized | Compound NOT metabolized | Compound metabolized |  | Compound NOT metabolized |
| CC(C)NCC(O)COc1ccc(CC(N)=O)cc1 (stereo unspecified) [ATENOLOL] |  | Compound NOT metabolized |  | Compound NOT metabolized | Compound NOT metabolized |  |  |
| CN1CCC(=C2c3ccccc3CCc3cccnc32)CC1.O=C(O)/C=C\C(=O)O.O=C(O)/C=C\C(=O)O [AZATADINE MALEATE] | Compound NOT metabolized | Compound NOT metabolized | Compound NOT metabolized | Compound NOT metabolized | Compound NOT metabolized |  | Compound NOT metabolized |
| CN(C)C(=O)Oc1cc(OC(=O)N(C)C)cc(C(O)CNC(C)(C)C)c1 (stereo unspecified) [BAMBUTEROL] | Compound NOT metabolized | Compound NOT metabolized | Compound NOT metabolized | Compound NOT metabolized |  | Compound NOT metabolized | Compound NOT metabolized |
| CCc1oc2ccccc2c1C(=O)c1cc(Br)c(O)c(Br)c1 [BENZBROMARONE] | Compound NOT metabolized | Compound NOT metabolized | Compound NOT metabolized | Compound NOT metabolized | Compound NOT metabolized |  | Compound NOT metabolized |
| NS(=O)(=O)c1cc2c(cc1Cl)N=C(CSCc1ccccc1)NS2(=O)=O [BENZTHIAZIDE] | Compound NOT metabolized | Compound NOT metabolized |  | Compound NOT metabolized | Compound NOT metabolized |  | Compound NOT metabolized |
| CN(C)CCOC(c1ccc(Cl)cc1)c1ccccn1.O=C(O)/C=C\C(=O)O (stereo unspecified) [CARBINOXAMINE MALEATE] | Compound NOT metabolized | Compound NOT metabolized | Compound NOT metabolized | Compound NOT metabolized |  | Compound NOT metabolized | Compound NOT metabolized |
| CCCC(C)(COC(N)=O)COC(=O)NC(C)C (stereo unspecified) [CARISOPRODOL] | Compound NOT metabolized | Compound NOT metabolized |  |  | Compound NOT metabolized | Compound metabolized |  |
| CN1C(=O)CCS(=O)(=O)C1c1ccc(Cl)cc1 (stereo unspecified) [CHLORMEZANONE] | Compound NOT metabolized | Compound NOT metabolized |  | Compound NOT metabolized | Compound metabolized |  |  |
| Br.CN(C)CCCC1(c2ccc(F)cc2)OCc2cc(C#N)ccc21 (stereo unspecified) [CITALOPRAM HYDROBROMIDE] | Compound NOT metabolized | Compound NOT metabolized | Compound NOT metabolized | Compound NOT metabolized | Compound NOT metabolized |  | Compound NOT metabolized |
| CN1CCC[C@@H]1CCO[C@](C)(c1ccccc1)c1ccc(Cl)cc1.O=C(O)/C=C/C(=O)O [CLEMASTINE FUMARATE] |  |  | Compound NOT metabolized |  |  | Compound metabolized |  |
| Clc1ccc(Cn2c(CN3CCCC3)nc3ccccc32)cc1 [CLEMIZOLE] | Compound NOT metabolized | Compound NOT metabolized | Compound NOT metabolized |  | Compound NOT metabolized |  | Compound NOT metabolized |
| CC(C)(C)NCC(O)c1cc(Cl)c(N)c(Cl)c1 (stereo unspecified) [CLENBUTEROL] | Compound NOT metabolized | Compound NOT metabolized | Compound NOT metabolized | Compound NOT metabolized |  | Compound NOT metabolized | Compound NOT metabolized |
| C[N+]12CCC(CC1)C(OC(=O)C(O)(c1ccccc1)c1ccccc1)C2.[Br-] (stereo unspecified) [CLIDINIUM BROMIDE] | Compound NOT metabolized | Compound NOT metabolized | Compound NOT metabolized | Compound NOT metabolized |  | Compound NOT metabolized | Compound NOT metabolized |
| COC(=O)[C@H](c1ccccc1Cl)N1CCc2sccc2C1.O=S(=O)(O)O [CLOPIDOGREL BISULFATE] | Compound NOT metabolized | Compound NOT metabolized | Compound NOT metabolized | Compound NOT metabolized |  | Compound metabolized | Compound NOT metabolized |
| COc1cc2c(c(OC)c1OC)-c1ccc(OC)c(=O)cc1[C@@H](NC(C)=O)CC2 [COLCHICINE] |  | Compound NOT metabolized | Compound NOT metabolized | Compound NOT metabolized | Compound NOT metabolized | Compound metabolized | Compound metabolized |
| O=P1(N(CCCl)CCCl)NCCCO1 (stereo unspecified) [CYCLOPHOSPHAMIDE ANHYDROUS] |  | Compound NOT metabolized |  |  | Compound NOT metabolized |  | Compound NOT metabolized |
| CC#C[C@]1(O)CC[C@H]2[C@@H]3CCC4=CC(=O)CCC4=C3[C@@H](c3ccc(N(C)C)cc3)C[C@@]21C [MIFEPRISTONE] | Compound NOT metabolized | Compound metabolized | Compound NOT metabolized | Compound NOT metabolized |  | Compound metabolized | Compound NOT metabolized |
| COc1ccc2c(c1OC)C(=O)O[C@@H]2[C@H]1c2c(cc3c(c2OC)OCO3)CCN1C [NOSCAPINE] | Compound NOT metabolized | Compound metabolized | Compound metabolized | Compound metabolized | Compound metabolized | Compound metabolized |  |
| CCCc1nc(C(C)(C)O)c(C(=O)OCc2oc(=O)oc2C)n1Cc1ccc(-c2ccccc2-c2nnn[nH]2)cc1 [OLMESARTAN MEDOXOMIL] | Compound metabolized |  | Compound metabolized | Compound metabolized |  | Compound metabolized |  |
| Cc1nc2n(c(=O)c1CCN1CCC(c3noc4cc(F)ccc34)CC1)CCCC2 [RISPERIDONE] | Compound metabolized | Compound metabolized | Compound metabolized | Compound metabolized |  |  | Compound NOT metabolized |
| COc1ccc2[nH]c([S+]([O-])Cc3ncc(C)c(OC)c3C)nc2n1 (stereo unspecified) [TENATOPRAZOLE] | Compound metabolized | Compound metabolized |  |  | Compound metabolized | Compound metabolized | Compound metabolized |
| CN1CCN(CC/C=C2/c3ccccc3Sc3ccc(S(=O)(=O)N(C)C)cc32)CC1 [THIOTHIXENE] | Compound NOT metabolized | Compound NOT metabolized | Compound metabolized | Compound NOT metabolized |  | Compound metabolized | Compound NOT metabolized |
| CCOC(=O)[C@H](CCc1ccccc1)N[C@@H](C)C(=O)N1[C@H](C(=O)O)C[C@H]2CCCC[C@@H]21 [TRANDOLAPRIL] | Compound NOT metabolized |  | Compound NOT metabolized |  | Compound metabolized | Compound metabolized |  |
